Measurements: US10131650B2, “Alpha-helix analog having triazine-piperazine backbone and method for preparing same” (POSCO, priority 2014, dated 2018)
pKi: −log10 of the molar value. Each block holds one compound with its values, some of them ahead of it.

Tests used:
[1] = target: T1, interaction between MCL-1 and BH3 (Homo sapiens, UniProt Q07820); test: Competitive fluorescence polarization assay with FITC-MCL-1-BH3 peptide; assay type: binding; conditions: for pKi: competitive fluorescence polarization, FITC-MCL-1-BH3 50 nM, 0.8 μM MCL-1ΔNΔC, read-out: Ki, dissociation of the interaction between MCL-1 and BH-3; for activity in competitive fluorescence polarization assay (MCL-1/BH3): result in words
T1 construct: GST (cleaved yes); made in house; host or cells: E. coli BL21(DE3)
Procedure: MCL-1 protein was incubated with sulfo-NHS-Biotin (Thermo Scientific) in 0.1 M NaHCO3 buffer (pH 8.3) for 45 minutes at room temperature to biotinylate the MCL-1 protein (because MCL-1ΔNΔC protein used in the test have several Lysine residues being exposed in a surface and being apart from the active site of BH3 binding, the protein is biotinylated with modification). The reaction was quenched with addition of 1.5 M hydroxylamine. The labeled protein was separated with the dialysis with 1×PBS buffer containing 0.05% Tween20 (pH 7.4). The degree of labeling was determined according to the manufacturer's instructions (degree of biotinylation: 1.05 biotin per protein).
Fluorescence polarization values were measured with a SpectraMax M5 Multi-Mode Microplate Reader (Molecular Devices). […] KD was calculated with GraphPad Prism 4 software. […] N-terminal labeled FITC-MCL-1-BH3 peptide (FITC-Abu-[…]-NH2) was synthesized and purified with HPLC. The compounds was incubated at various concentrations with FITC-MCL-1-BH3 (50 nM) and 0.8 μM MCL-1ΔNΔC in binding buffer for 30 minutes and then was added by FITC-MCL-1-BH3 (50 nM). After incubated with addition of various concentrations of compounds, the fluorescence polarization was measured. Ki was calculated by using the conventional method (Nikolovska-Coleska, Z. et al, Anal. Biochem. 2004, 332, 261).

[2] = target: T2, MCL-1/BAK interaction in Jurkat T cells (Homo sapiens, UniProt Q07820); test: Co-immunoprecipitation and Western blotting; assay type: cell-based; conditions: 2.5 hours, MCL-1 immunoprecipitation, Western blot
T2 construct: endogenous in cells; host or cells: Jurkat T cells
Procedure: In Opti-MEM medium, Jurkat T cells (1×10^7 cells) were treated with DMSO or compound. Cells were harvested after culturing for 2.5 hours, washed once with PBS, and lysed on ice using lysis buffer (50 mM Tris-HCl, pH 7.4, 150 mM NaCl, 1 mM EDTA, 1 mM DTT, 0.5% NP-40 and complete protease inhibitor tablet). Cell lysates were incubated with anti-MCL-1 antibody (S-19, Santa Cruz) overnight at 4° C. and incubated with protein A/G agarose for 1 hour. The beads were precipitated, washed at three times with lysis buffer, and the denatured protein was subjected to western blotting using anti-BAK (Cell Signaling) and anti-MCL-1 antibody. Western blot analysis was performed on an Immobilon-FL (Millipore) PVDF membrane. Goat anti-Rabbit IRDye 680 antibody (Licor) was used as a secondary antibody and the signal was analyzed with Odyssey 3.0 software.

[3] = Water solubility in phosphate buffered saline; assay type: physicochemical; conditions: aqueous buffer; phosphate buffered saline at pH 7.4
Source text: As a result of analyzing the three peptoids, the selected compounds had the following structures of 9a (Chemical formula 4), 9b (Chemical formula 5) and 9c (Chemical formula 6), respectively.

Bcl-xL1-212 = Bcl-xL1-212 (Homo sapiens, UniProt Q07817); test: Competitive fluorescence polarization assay, selectivity; assay type: binding; conditions: competitive FP
Source text: Because BH3-binding pocket of MCL-1 is similar to BH3-binding pocket of Bcl-2 family proteins such as Bcl-xL, the present inventors tested the selectivity of PPT-31.

Mcl-1172-320 = Mcl-1172-320 (Homo sapiens, UniProt Q07820); test: Competitive fluorescence polarization assay with labeled Bak-BH3 peptide
Procedure: The cell was treated with 1 mM IPTG (isopropyl β-D-1-thiogalactopyranoside) to induce the protein expression. The cell pellet was resuspended with lysis buffer (20 mM Tris, pH 7.2, 250 mM NaCl, complete protease tablet (Roche)) and sonicated to be lysis. After centrifuging, the cell lysate was applied to a 5-mL GSTrap HP column (GE Life Sciences) and performed according to the manufacturer's instructions.
Various concentrations of phenyl-piperazine-triazine in 40 μL of buffer were added to the mixture. After incubating for 15 minutes, the Fluorescence polarization (mP units) was measured with Infinite®200 PRO Microplate Reader (Tecan).

[4] = test system: WS-1 human fibroblast cells; test: Cell viability assay; assay type: cell-based; conditions: 24 hours
Procedure: (§1) Jurkat T cells were cultured in RPMI 1640 medium containing 10% FBS, and 4×10^4 Jurkat T cells were seeded in 100 μL Opti-MEM medium (Invitrogen) of 96-well plate. WS-1 cells were cultured in MEM medium containing 10% FBS and 2×10^4 WS-1 cells were seeded in 100 μL MEM medium containing 10% FBS of 96-well plate for 24 hours, washed with PBS, and cultured in 100 μL Opti-MEM. The cells were maintained at serum-starved state for 6 hours and treated with the compound. After culturing for 24 hours, the cell viability was assayed using the CellTiter 96 AQueous Non-Radioactive Cell Proliferation Assay kit (Promega) according to the manufacturer's instructions.

Jurkat leukemia T cells = test: Cell viability assay; assay type: cell-based; conditions: 24 hours
Procedure: as §1

A549 cells = test: Confocal microscopy, cell permeation; assay type: cell-based; conditions: fluorescence-labeled compound
Procedure: A549 cells (5×10^3 cells) were plated MEM medium containing 10% FBS of 96-well plates. Cells were maintained for 24 hours, washed with PBS, and then […] of fluorescence-labeled compound or 5 (6)-carboxyfluorescein was treated in Opti-MEM medium and incubated for 2.5 hours. The cells were washed with 1×PBS (2 times) and fluorescence images were analyzed.

[5] = test system: U266 cells (multiple myeloma); test: Cell viability assay; assay type: cell-based; conditions: 24 hours
α-synuclein = target: T3, α-synuclein (Homo sapiens, UniProt P37840); test: Fluorescence polarization assay, binding to wild type α-synuclein; conditions: result in words
T3 construct: GST (cleaved yes); made in house; host or cells: E. coli Rosetta 2 (DE3)

U266 cells = test: Caspase 3/7 assay; assay type: cell-based; conditions: 16 hours
[6] = test system: HEK293 embryonic kidney cells; test: Cell viability assay; assay type: cell-based; conditions: 24 hours
[7] = target: α-synuclein disease-associated mutant A53T (Homo sapiens, UniProt P37840, A53T); test: Thioflavin-T aggregation assay; assay type: biochemical; conditions: 30 hours, 37° C.

T1 sequence (Q07820 172-320): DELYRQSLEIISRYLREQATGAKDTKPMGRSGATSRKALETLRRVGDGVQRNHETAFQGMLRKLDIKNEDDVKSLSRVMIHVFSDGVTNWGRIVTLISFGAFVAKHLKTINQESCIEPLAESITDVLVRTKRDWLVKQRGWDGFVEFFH
T2 sequence (Q07820 whole entry): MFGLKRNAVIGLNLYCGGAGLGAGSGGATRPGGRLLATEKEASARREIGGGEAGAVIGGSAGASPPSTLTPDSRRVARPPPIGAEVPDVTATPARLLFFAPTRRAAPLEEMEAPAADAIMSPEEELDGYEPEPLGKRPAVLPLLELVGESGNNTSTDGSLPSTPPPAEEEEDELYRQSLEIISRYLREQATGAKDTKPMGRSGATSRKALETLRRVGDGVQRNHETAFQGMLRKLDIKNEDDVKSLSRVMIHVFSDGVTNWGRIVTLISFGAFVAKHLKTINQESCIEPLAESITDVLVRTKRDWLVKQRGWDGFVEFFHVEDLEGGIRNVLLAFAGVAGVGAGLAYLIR
Sequence of Mcl-1172-320 (Q07820 172-320): as the sequence (Q07820 172-320) above
Sequence of Bcl-xL1-212 (Q07817 1-212): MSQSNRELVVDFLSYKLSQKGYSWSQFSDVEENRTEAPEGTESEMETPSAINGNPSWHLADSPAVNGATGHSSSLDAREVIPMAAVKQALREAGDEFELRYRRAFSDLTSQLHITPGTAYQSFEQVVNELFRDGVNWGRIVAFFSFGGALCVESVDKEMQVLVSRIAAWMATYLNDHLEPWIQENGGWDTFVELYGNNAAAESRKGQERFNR

inhibition of the interaction between Bcl-xL1-212 and BH3 (Bcl-xL1-212): did not inhibit
pKi (Mcl-1172-320): 5.14
inhibitory effect on the Mcl-1/BH3 interaction (Mcl-1172-320; at 10 μM and 50 μM, among 36 library compounds): highest inhibitory effect
Structure (SMILES): CCNc1nc(NCc2ccccc2)nc(N2CCN(c3ccc(C(N)=O)cc3NCc3ccccc3)CC2Cc2ccccc2)n1 (stereo not drawn) [PPT-31, 2-{4-(2-aminobenzyl-4-carbamoylphenyl)-2-benzyl-piperazine}-4-aminoethyl-6-aminobenzyl-[1,3,5]triazine]

pKi [1]: 5.03
inhibition of MCL-1/BAK protein interaction in cells [2]: inhibited
cell permeability (A549 cells): permeable to cells
binding to α-synuclein (α-synuclein): showed affinity
solubility [3]: ~100 µg/mL
Structure (SMILES): CCNc1nc(NCCc2ccc(O)cc2)nc(N2CCN(c3nc(N)nc(Nc4ccc(Oc5ccccc5)cc4)n3)CC2Cc2ccccc2)n1 (stereo not drawn) [Chemical formula 6, 4-(2-((4-(4-(4-amino-6-((4-phenoxyphenyl)amino)-1,3,5-triazin-2-yl)-2-benzylpiperazin-1-yl)-6-(ethylamino)-1,3,5-triazin-2-yl)amino)ethyl)phenol]
survival of normal cells [4]: did not affect survival
survival of cancer cells (Jurkat leukemia T cells): effectively inhibited the survival
survival of cancer cells [5]: effectively inhibited the survival
caspase 3/7 activity (U266 cells): increased the caspase activity in a concentration-dependent manner
survival of normal cells [6]: did not affect survival

Second part, the compound before the results:

Structure (SMILES): CCCN(CC1CC1)c1nc(N)nc(N2CCN(c3nc(NCC)nc(NCc4ccc5c(c4)OCO5)n3)C(Cc3ccccc3)C2)n1 (stereo not drawn) [Chemical formula 5, 6-(4-(4-amino-6-((cyclopropylmethyl)(propyl)amino)-1,3,5-triazin-2-yl)-2-benzylpiperazin-1-yl)-N^2-(benzo[d][1,3]dioxol-5-ylmethyl)-N^4-ethyl-1,3,5-triazine-2,4-diamine]
pKi [1]: 4.76
inhibition of MCL-1/BAK protein interaction in cells [2]: effectively inhibit
solubility [3]: ~100 µg/mL

Structure (SMILES): CCNc1nc(N)nc(N2CCN(c3nc(NCC)nc(NCC)n3)CC2)n1 [9-nc, 6-(4-(4-amino-6-(ethylamino)-1,3,5-triazin-2-yl)piperazin-1-yl)-N^2,N^4-diethyl-1,3,5-triazine-2,4-diamine, reference compound]
activity in competitive fluorescence polarization assay (MCL-1/BH3) [1]: did not bind
inhibition of MCL-1/BAK protein interaction in cells [2]: did not inhibit

Structure (SMILES): CCNc1nc(NCc2ccccc2)nc(N2CCN(c3nc(N)nc(NCc4ccc5c(c4)OCO5)n3)CC2Cc2ccccc2)n1 (stereo not drawn) [Chemical formula 4, 6-(4-(4-amino-6-((benzo[d][1,3]dioxol-5-ylmethyl)amino)-1,3,5-triazin-2-yl)-2-benzylpiperazin-1-yl)-N^2-benzyl-N^4-ethyl-1,3,5-triazine-2,4-diamine]
activity in competitive fluorescence polarization assay (MCL-1/BH3) [1]: weak activity
aggregation of α-synuclein (onset / inhibition) [7]: had not inhibition of aggregation
solubility [3]: ~100 µg/mL
